Results taken from patent publication US8883827B2, “Azole derivatives as WTN pathway inhibitors” (Oslo University Hospital HF, priority 2009, dated 2014).

Key:
SW480 cells [1] = experiment: Growth inhibition (GI50) MTS assay; format: cell-based; details: Homo sapiens, 72 h
Procedure: Growth inhibition curves were prepared using SW480 cells, prepared essentially according to Example 23. SW480 cells (3000 cells per well) were seeded on 96 well plates (eight replicates per treatment). 24 hours later and daily thereafter, cell culture media (including 10% FBS) was mixed with various compound concentrations or with 0.1% DMSO vehicle and then added to the wells. Sixteen wells of seeded control cells, defining incubation time zero (to =24 hour after cell seeding), were incubated with […] substrate in 100 μl of phenol-free D-MEM (Invitrogen) for 2 hours, as described in the CellTiter 96® AQueous Non-Radioactive Cell Proliferation Assay protocol (MTS, Promega). The A490 was recorded. The treatment samples were likewise measured after 72 hours. The following formula was used to determine the single well relative A490 sample values: ((Sample A490−Average A490t0)*100)/(Average A490t720.1% DMSO control−Average A490t0)
XLfit (idbs) was used to determine the IC50 and GI50 values in inhibition experiments. The data were fit to the following formulae:
GI50: Eadie-Hofstee Model: fit=(A+((B*x)/((C*(D+1))+x))) inv=(((y−A)*(C*(D+1)))/((A+B)−y)) res=(y−fit)

SW480 cells [2] = experiment: Illumina microarray gene expression analysis; format: cell-based
Procedure: A microarray analysis using an Illumina® array was performed in triplicate to investigate differential gene expression in cells treated with a Wnt pathway inhibitor. […] In vitro transcription reactions were incubated overnight (14 hr). Labeled cRNA was hybridized to Illumina® Human-6 v3 BeadChips (Illumina, San Diego, Calif.) at 58° C. overnight, according to the Illumina® Whole-Genome Gene Expression Protocol for BeadStation (Doc. #11226030.rev.C, Illumina Inc.). The hybridized BeadChip was stained with streptavidin-Cy3 (Amersham™, PA43001) for visualization and scanned with an Illumina® BeadArray Reader. The scanned images were imported into BeadStudio 3.1.3.0 (Illumina Inc) for extraction and quality control. A criterion of 0.5-fold change in expression was applied to the analysis. […] A list of differentially expressed genes of interest is given below in tables 1 and 2. […] Many known Wnt target genes (column 3) were influenced in treated cells. Some genes were influenced that are also affected in Ls174T colorectal cancer cells expressing an inducible dominant negative form of TCF-4 (column 4) (van de Wetering et al., Mol. Cell. Biol. (2008) 28(8), p. 2732-44). Other influenced genes that are important for cell cycle control and other genes correlated to regulated canonical Wnt signaling are also shown. The degree of modulation (column 5) is an indication of the degree of change between the non-treated and compound No. 1 treated samples.

COc1ccc(-n2c(SCc3nc(-c4ccc(C)cc4)no3)nnc2-c2ccncc2)cc1 [Compound 1]
GI50 (SW480 cells [1]): 11.5 µM | Degree of modulation: CCAAT/enhancer binding protein (C/EBP), delta (SW480 cells [2]; x at 10 μM and 25 μM): − (moderate down-regulation (log^2 ratio of between −0.5 and −1.0)) | Degree of modulation: Kruppel-like factor 4 (gut) (SW480 cells [2]; x at 10 μM and 25 μM): + (moderate up-regulation (log^2 ratio of between 0.5 and 1.0)) | Degree of modulation: Kruppel-like factor 6 (SW480 cells [2]; x at 10 μM and 25 μM): ++ (strong up-regulation (log^2 ratio of between 1.0 and 1.5)) | Degree of modulation: LY6/PLAUR domain containing 5 (SW480 cells [2]; x at 10 μM and 25 μM): −−− (very strong down-regulation (log^2 ratio of between −1.5 and −2)) | Degree of modulation: LY6/PLAUR domain containing 6B (SW480 cells [2]; x at 10 μM and 25 μM): ++ (strong up-regulation (log^2 ratio of between 1.0 and 1.5)) | Degree of modulation: SPANXA1 (SW480 cells [2]; x at 10 μM and 25 μM): −−− (very strong down-regulation (log^2 ratio of between −1.5 and −2)) | Degree of modulation: SPANXB2 (SW480 cells [2]; x at 10 μM and 25 μM): −−− (very strong down-regulation (log^2 ratio of between −1.5 and −2)) | Degree of modulation: SPANXC (SW480 cells [2]; x at 10 μM and 25 μM): −−− (very strong down-regulation (log^2 ratio of between −1.5 and −2)) | Degree of modulation: SPANXE (SW480 cells [2]; x at 10 μM and 25 μM): −−− (very strong down-regulation (log^2 ratio of between −1.5 and −2)) | Degree of modulation: SRY (sex determining region Y)-box 18 (SW480 cells [2]; x at 10 μM and 25 μM): − (moderate down-regulation (log^2 ratio of between −0.5 and −1.0)) | Degree of modulation: TEA domain family member 4 (SW480 cells [2]; x at 10 μM and 25 μM): − (moderate down-regulation (log^2 ratio of between −0.5 and −1.0)) | Degree of modulation: WNT1 inducible signaling pathway protein 3 (SW480 cells [2]; x at 10 μM and 25 μM): + (moderate up-regulation (log^2 ratio of between 0.5 and 1.0)) | Degree of modulation: alkaline phosphatase, liver/bone/kidney (SW480 cells [2]; x at 10 μM and 25 μM): − (moderate down-regulation (log^2 ratio of between −0.5 and −1.0)) | Degree of modulation: axin 2 (SW480 cells [2]; x at 10 μM and 25 μM): − (moderate down-regulation (log^2 ratio of between −0.5 and −1.0)) | Degree of modulation: dickkopf homolog 1 (Xenopus laevis) (SW480 cells [2]; x at 10 μM and 25 μM): −− (strong down-regulation (log^2 ratio of between −1.0 and −1.5)) | Degree of modulation: frizzled homolog 4 (Drosophila) (SW480 cells [2]; x at 10 μM and 25 μM): − (moderate down-regulation (log^2 ratio of between −0.5 and −1.0)) | Degree of modulation: homeobox B2 (SW480 cells [2]; x at 10 μM and 25 μM): − (moderate down-regulation (log^2 ratio of between −0.5 and −1.0)) | Degree of modulation: homeobox B5 (SW480 cells [2]; x at 10 μM and 25 μM): − (moderate down-regulation (log^2 ratio of between −0.5 and −1.0)) | Degree of modulation: homeobox B7 (SW480 cells [2]; x at 10 μM and 25 μM): − (moderate down-regulation (log^2 ratio of between −0.5 and −1.0)) | Degree of modulation: inhibitor of DNA binding 2, dominant negative helix-loop-helix protein (SW480 cells [2]; x at 10 μM and 25 μM): −− (strong down-regulation (log^2 ratio of between −1.0 and −1.5)) | Degree of modulation: mitogen-activated protein kinase kinase 3 (SW480 cells [2]; x at 10 μM and 25 μM): + (moderate up-regulation (log^2 ratio of between 0.5 and 1.0)) | Degree of modulation: naked cuticle homolog 1 (Drosophila) (SW480 cells [2]; x at 10 μM and 25 μM): − (moderate down-regulation (log^2 ratio of between −0.5 and −1.0)) | Degree of modulation: peroxisome proliferator-activated receptor gamma (SW480 cells [2]; x at 10 μM and 25 μM): ++ (strong up-regulation (log^2 ratio of between 1.0 and 1.5)) | Degree of modulation: prickle homolog 2 (Drosophila) (SW480 cells [2]; x at 10 μM and 25 μM): − (moderate down-regulation (log^2 ratio of between −0.5 and −1.0)) | Degree of modulation: FYN oncogene related to SRC, FGR, YES (SW480 cells [2]; x at 10 μM only): + (moderate up-regulation (log^2 ratio of between 0.5 and 1.0)) | Degree of modulation: T-cell lymphoma invasion and metastasis 1 (SW480 cells [2]; x at 10 μM only): + (moderate up-regulation (log^2 ratio of between 0.5 and 1.0)) | Degree of modulation: catenin (cadherin-associated protein), alpha-like 1 (SW480 cells [2]; x at 10 μM only): − (moderate down-regulation (log^2 ratio of between −0.5 and −1.0)) | Degree of modulation: gastrin (SW480 cells [2]; x at 10 μM only): − (moderate down-regulation (log^2 ratio of between −0.5 and −1.0)) | Degree of modulation: low density lipoprotein receptor-related protein 5 (SW480 cells [2]; x at 10 μM only): + (moderate up-regulation (log^2 ratio of between 0.5 and 1.0)) | Degree of modulation: mitogen-activated protein kinase kinase kinase 1 (SW480 cells [2]; x at 10 μM only): + (moderate up-regulation (log^2 ratio of between 0.5 and 1.0)) | Degree of modulation: notum pectinacetylesterase homolog (Drosophila) (SW480 cells [2]; x at 10 μM only): ++ (strong up-regulation (log^2 ratio of between 1.0 and 1.5)) | Degree of modulation: secreted frizzled-related protein 5 (SW480 cells [2]; x at 10 μM only): + (moderate up-regulation (log^2 ratio of between 0.5 and 1.0)) | Degree of modulation: slowmo homolog 1 (Drosophila) (SW480 cells [2]; x at 10 μM only): − (moderate down-regulation (log^2 ratio of between −0.5 and −1.0)) | Degree of modulation: transmembrane 4 L six family member 5 (SW480 cells [2]; x at 10 μM only): ++ (strong up-regulation (log^2 ratio of between 1.0 and 1.5)) | Degree of modulation: A kinase (PRKA) anchor protein 1 (SW480 cells [2]; x at 25 μM only): + (moderate up-regulation (log^2 ratio of between 0.5 and 1.0)) | Degree of modulation: CD44 molecule (Indian blood group) (SW480 cells [2]; x at 25 μM only): + (moderate up-regulation (log^2 ratio of between 0.5 and 1.0)) | Degree of modulation: FOS-like antigen 1 (SW480 cells [2]; x at 25 μM only): + (moderate up-regulation (log^2 ratio of between 0.5 and 1.0)) | Degree of modulation: PDZ and LIM domain 1 (SW480 cells [2]; x at 25 μM only): − (moderate down-regulation (log^2 ratio of between −0.5 and −1.0)) | Degree of modulation: Sp5 transcription factor (SW480 cells [2]; x at 25 μM only): − (moderate down-regulation (log^2 ratio of between −0.5 and −1.0)) | Degree of modulation: adenomatosis polyposis coli down-regulated 1 (SW480 cells [2]; x at 25 μM only): −− (strong down-regulation (log^2 ratio of between −1.0 and −1.5)) | Degree of modulation: baculoviral IAP repeat-containing 5 (SW480 cells [2]; x at 25 μM only): − (moderate down-regulation (log^2 ratio of between −0.5 and −1.0)) | Degree of modulation: bone morphogenetic protein 1 (SW480 cells [2]; x at 25 μM only): + (moderate up-regulation (log^2 ratio of between 0.5 and 1.0)) | Degree of modulation: bone morphogenetic protein 7 (SW480 cells [2]; x at 25 μM only): − (moderate down-regulation (log^2 ratio of between −0.5 and −1.0)) | Degree of modulation: c-abl oncogene 1, receptor tyrosine kinase (SW480 cells [2]; x at 25 μM only): − (moderate down-regulation (log^2 ratio of between −0.5 and −1.0))
